Series [1] deals with [^3 H]-norepinephirine(NE) uptake. Nature of the series: monoamine uptake inhibition, [^3 H]-norepinephirine (NE), crude synaptosomal preparations of cerebral cortex and hippocampus. In kind it is biochemical. Particulars: [^3 H]-NE 11 nM; 37° C; rat synaptosomes; read-out: Monoamine Reuptake Inhibitory Activity IC50, NE. As to the method:
(§1) Effects of the compound of this invention on monoamine uptake were investigated using [^3 H]-norepinephirine(NE) and [3H]-serotonin (5-HT). Rats were sacrificed by decapitation. The cerebral cortex and hippocampus were removed and homogenized in 10-15 volumes (W/V) of an ice-cold medium containing 0.32M sucrose. Crude synaptosomal preparations (P2) were isolated after differential centrifugation at 1000×g for 10 min and 20,000×g for 30 min at 4° C. Synaptosomal membranes were suspended in Krebs-Ringer bicarbonate (KRB) solution (116 mM NaCl, 4.8 mM KCl, 1.3 mM CaCl2, 1.2 mM MgSO4, 1.2 mM NaH2 PO4, 25 mM NaHCO3, 0.1 mM EDTA-2Na, 11.1 mM D-glucose, 0.11 mM L-ascorbic acid, 0.01 mM pargyline). Synaptosomal membrane suspension (900 μl) was preincubated with the test compound dissolved in DMSO solution at 37° C. for 5 min. The reaction was initiated by addition of 100 μl of [^3 H]-NE (11 nM in final concentration) or [^3 H]-HT (10 nM in final concentration). Five minutes later, the reaction was stopped by the addition of 4 ml of ice-cold KRB and the reaction mixture was filtered through Whatman CF/B. Filters were washed twice with 4 ml of KRB and the radioactivity bound was counted with liquid scintillant. Imipramine was used as positive control.

For series [2], the target named is T1, Acetylcholinesterase (Rattus norvegicus, UniProt P37136).
T1 construct: Using the S1 fraction of a male Wistar rat cerebral cortex homogenate as a source of cholinesterase; from tissue; host or cells: male Wistar rat cerebral cortex homogenate, S1 fraction
In words: cholinesterase inhibitory activity using (acetyl-[^3 H])-acetylcholine, S1 fraction of rat cerebral cortex homogenate. The note with it: 30 min incubation. In kind it is biochemical, male Wistar rat.
Description: The cholinesterase inhibitory activity of the compound of the present invention was tested, using (acetyl-[^3 H])-acetylcholine. Using the S1 fraction of a male Wistar rat cerebral cortex homogenate as a source of cholinesterase, (acetyl-[^3 H])-acetylcholine, as a substrate, and the test compound, as a sample, were incubated for 30 minutes. After the reaction was terminated, a toluene scintillator was added and the reaction mixture was shaken to migrate the [^3 H]-acetic acid resulting from the reaction to the toluene layer, where radioactivity was counted using a liquid scintillation counter to determine the cholinesterase inhibitory activity.
The sample's cholinesterase inhibitory activity was expressed by 50% inhibitory concentration (IC50).

Series [3] relates to [3H]-serotonin (5-HT) uptake. In words: monoamine uptake inhibition, [3H]-serotonin (5-HT), crude synaptosomal preparations of cerebral cortex and hippocampus. The series is classed as biochemical. Particulars: [^3 H]-HT 10 nM; 37° C; rat synaptosomes; read-out: Monoamine Reuptake Inhibitory Activity IC50, 5-HT. As to the method: as §1
The conditions of series [4]: background art; cited from earlier work.

The values below come from patent US5686466A, “Tricyclic condensed heterocyclic compounds their production and use” (priority 1993, dated 1997).

pIC50: −log10 of the molar value. Structures can show the parent of a compound that is named as a salt.

T1 sequence (P37136 32-614): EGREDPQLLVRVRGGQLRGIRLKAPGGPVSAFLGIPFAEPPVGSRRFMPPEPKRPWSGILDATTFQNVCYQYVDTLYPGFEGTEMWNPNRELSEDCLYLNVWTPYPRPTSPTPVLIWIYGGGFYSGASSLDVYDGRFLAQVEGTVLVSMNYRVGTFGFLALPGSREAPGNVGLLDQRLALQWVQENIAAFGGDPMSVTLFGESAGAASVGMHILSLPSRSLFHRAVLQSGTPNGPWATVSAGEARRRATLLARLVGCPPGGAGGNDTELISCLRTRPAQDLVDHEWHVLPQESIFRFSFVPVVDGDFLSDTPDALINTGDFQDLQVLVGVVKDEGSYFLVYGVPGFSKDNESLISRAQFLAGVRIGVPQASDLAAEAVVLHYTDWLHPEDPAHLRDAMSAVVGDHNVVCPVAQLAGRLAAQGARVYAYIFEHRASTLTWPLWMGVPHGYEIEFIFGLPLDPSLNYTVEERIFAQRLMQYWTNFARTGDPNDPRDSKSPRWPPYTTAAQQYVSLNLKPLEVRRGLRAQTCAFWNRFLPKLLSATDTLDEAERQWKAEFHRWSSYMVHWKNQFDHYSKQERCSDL

`Cc1cccc(CN2CCN(CCC(=O)c3cc4c5c(c3)CC(=O)N5CCC4)CC2)c1` [30-1]: the pIC50 is 5.34 in series [1], 7.54 in series [2] and 7.02 in series [3].

On to `Cc1cccc(CN2CCN(CCC(=O)c3cc4c5c(c3)CCN5C(=O)CC4)CC2)c1` [30-19], for which the pIC50 in series [1] was 5.55; in series [2], 7.92; in series [3], 7.18.

For the compound `O=C(CCN1CCN(Cc2ccccc2Cl)CC1)c1cc2c3c(c1)CCN3C(=O)CC2` [30-21], the values for the pIC50 in series [1], in series [2] and in series [3] were 5.81, 8.44 and 7.05, respectively.

With `O=C(CCN1CCN(Cc2cccc(Cl)c2)CC1)c1cc2c3c(c1)CCN3C(=O)CC2` [30-22], the pIC50 was 6.10 in series [1], 8.21 in series [2] and 7.22 in series [3].

For `O=C(CCN1CCN(Cc2cccc(F)c2)CC1)c1cc2c3c(c1)CCN3C(=O)CC2` [30-25], the values for the negative logarithm of the IC50 (pIC50) in series [1], in series [2] and in series [3] were 5.88, 10.01 and 7.93, respectively.

`Cc1ccc(C)c(CN2CCN(CCC(=O)c3cc4c5c(c3)CCN5C(=O)CC4)CC2)c1` [30-27]: the results for the pIC50 in series [1], in series [2] and in series [3] were 6.25, 6.73 and 7.10, respectively.

As to `O=C(CCN1CCC(Cc2ccccc2)CC1)c1cc2c3c(c1)CCN3C(=O)CC2` [31-4], the pIC50 in series [1] is 6.80; in series [2], 6.73; in series [3], 7.68.

With `O=C(CCC1CCN(Cc2ccccc2)CC1)c1ccc2c3c1CCCC3CN2` (centres unmarked) [compound 4, 1-(1,2,2a,3,4,5-Hexahydrobenz[cd]indol-6-yl)-3-[1-(phenylmethyl)piperidin-4-yl]-1-propanone dihydrochloride], the pIC50 in series [1] was 6.46; in series [2], 7.04; in series [3], 6.22.

With `Cc1ccccc1CN1CCN(CCC(=O)c2cc3c4c(c2)CC(=O)N4CCC3)CC1` [compound 23, 8-[3-[4-[(2-Methylphenyl)methyl]-1-piperazinyl]-1-oxopropyl]-5,6-dihydro-4H-pyroro[3,2,1-ij]quinolin-2(1H)-one dihydrochloride], the pIC50 was 5.61 in series [1], 7.21 in series [2] and 7.18 in series [3].

Take `CNC(=O)Oc1ccc2c(c1)[C@]1(C)CCN(C)[C@@H]1N2C` [physostigmine]: in series [4], the duration of action result is “short duration of action” and the toxicity entry was “strong toxicity”.

One may read the pIC50 as the IC50 on a negative log10 scale, so that one unit is a factor of ten.
